Read-outs that look alike come from different tables or passages of the source.
What was measured:
[1] = system: MRL/lpr lupus erythematosus model mice; type: in vivo; parameters: key to Kidney IHC (IgG) pathological score, bilateral kidneys: product score; 0 negative, 1-3 low, 4-8 medium, 9-12 high; details: for Area under the urine protein curve: 16 weeks; for Kidney HE pathological score of both kidneys, Activity index / Kidney HE pathological score of both kidneys, Chronicity index / Kidney HE pathological score of both kidneys, Tubulointerstitial lesions / Kidney IHC (IgG) pathological score, bilateral kidneys / Skin HE pathological score / Total kidney weight / Total kidney weight/body weight %: after 17 weeks of treatment; for IL-6 concentration in serum (ELISA) / Spleen weight / Spleen weight/body weight % / TNF-alpha concentration in serum (ELISA) / Total lymph node weight / Total lymph node weight/body weight %: end of the test
Method: • female MRL/lpr mice aged 4 weeks, number: 50; • female C57BL/6 mice aged 4 weeks, number: 10.
According to the concentration of the serum anti-ds-DNA antibody, female MRL/lpr mice were randomly divided into five groups: model group: solvent (aqueous solution containing 0.4% Tween 80 and 0.5% methylcellulose) 10 mL/kg BID, positive control group: prednisone 6 mg/kg QD, compound (I) 20, 40 and 60 mg/kg BID groups, the administration volumes respectively: 10 mL/kg. In addition, female C57BL/6 mice served as the normal control group. The animals in the Compound (I) group and the model group were administrated with the medicament or the solvent by gavage twice a day starting from the beginning of five weeks of age with an interval of 8 hours between two administrations; prednisone was administered to the animals by gavage once a day from the beginning of five weeks of age; the administration was totally performed for 17 weeks.
Two mice in the model group died at 15 and 16 weeks of administration, respectively, and 8 mice remained at the end of the test; one mouse in the compound (I) 20 mg/kg bid group died in the later period of the 16th week of administration, and 9 mice remained at the end of the test; and no death of mice occurred in other groups.
The skin destructions on the face, ears and back of mice were observed and scored once a week for 17 times totally.
Scoring system: 1) red swelling and bleeding of the skin; 2) the extent of hair loss and skin dryness; 3) edema; 4) excoriation/corrosion; 5) lichenoid sclerotic plaque and other symptoms. The score of each item was as follows: normal=0 points; slight=1 point; moderate=2 points; severe=3 points. The severity of skin destruction was determined according to the total score of each evaluated symptom. […]
The lymph nodes of MRL/lpr mice were scored once a week for a total of 17 times during the test.
According to the lymph node diameter (cm), the score values were 0-6 points: • 0 point: normal; • 1 point: small (the diameter at one location of points on both sides was less than 1 cm); • 2 points: small (the diameters at two location of points on both sides were less than 1 cm); • 3 points: small (the diameters at three location of points on both sides were less than 1 cm); • 4 points: large (the diameter at one location of points on both sides was larger than 1 cm, the diameters at the other two location of points on both sides were less than 1 cm); • 5 points: large (the diameters at two location of points on both sides were larger than 1 cm, and the diameter at the other location of points on both sides was less than 1 cm); • 6 points: large (the diameters at three location of points on both sides were greater than 1 cm). […]
Kidney HE scoring criteria: […]
During the test, the concentration of serum anti-ds-DNA antibody of mice were detected every 4 weeks for 16 weeks.
At the end of the test, the serum cytokine levels of mice were detected by ELISA. […] See Table 25 and FIG. 17 for details.

[2] = Rat effective dose for safety window calculation; type: in vivo

## NC(=O)c1cnc(Nc2ccc3c(c2)OC[C@H]2CN(S(=O)(=O)C4CC4)CCN32)nc1NC1CC1 [Compound (I), (R)-4-(cyclopropylamino)-2-((3-(cyclopropylsulfonyl)-1,2,3,4,4a,5-hexahydrobenzo[b]pyrazolo[1,2-d][1,4]oxazin-8-yl)amino)pyrimidine-5-arboxamide]
[1]; 20 mg/kg BID
  Area under the urine protein curve: 5646.42 ± 587.29 wk*mg/L
  Kidney HE pathological score of both kidneys, Activity index: 5.20 ± 0.73
  Kidney HE pathological score of both kidneys, Chronicity index: 7.00 ± 0.54
  Kidney HE pathological score of both kidneys, Tubulointerstitial lesions: 13.50 ± 0.52
  Kidney IHC (IgG) pathological score, bilateral kidneys: 8.90 ± 0.72
  Skin HE pathological score: 3.56 ± 0.44
  Total kidney weight: 0.4146 ± 0.02 g
  Total kidney weight/body weight %: 1.1855 ± 0.05%
  IL-6 concentration in serum (ELISA): 52.38 ± 5.29 pg/mL
  Spleen weight: 0.4658 ± 0.04 g
  Spleen weight/body weight %: 1.3336 ± 0.11 %
  TNF-alpha concentration in serum (ELISA): 48.03 ± 4.12 pg/mL
  Total lymph node weight: 1.6823 ± 0.24 g
  Total lymph node weight/body weight %: 4.7396 ± 0.60%
[1]; 20 mg/kg BID, week 0
  Lymph node score: 0.0 ± 0.00
  Skin score (skin destruction): 0.0 ± 0.00
[1]; 20 mg/kg BID, week 4
  Skin score (skin destruction): 0.0 ± 0.00
[1]; 20 mg/kg BID, week 6
  Lymph node score: 0.0 ± 0.00
[1]; 20 mg/kg BID, week 7
  Lymph node score: 0.6 ± 0.22
[1]; 20 mg/kg BID, week 8
  Skin score (skin destruction): 0.0 ± 0.00
[1]; 20 mg/kg BID, week 9
  Lymph node score: 2.0 ± 0.26
[1]; 20 mg/kg BID, week 11
  Lymph node score: 2.8 ± 0.29
[1]; 20 mg/kg BID, week 12
  Lymph node score: 3.0 ± 0.21
  Skin score (skin destruction): 0.0 ± 0.00
[1]; 20 mg/kg BID, week 14
  Skin score (skin destruction): 0.2 ± 0.20
[1]; 20 mg/kg BID, week 16
  Skin score (skin destruction): 0.2 ± 0.13
[1]; 20 mg/kg BID, week 17
  Lymph node score: 3.6 ± 0.24
  Skin score (skin destruction): 0.2 ± 0.15
[1]; 40 mg/kg BID
  Area under the urine protein curve: 3851.50 ± 340.32 wk*mg/L
  Kidney HE pathological score of both kidneys, Activity index: 4.00 ± 0.42
  Kidney HE pathological score of both kidneys, Chronicity index: 7.60 ± 0.50
  Kidney HE pathological score of both kidneys, Tubulointerstitial lesions: 12.30 ± 1.03
  Kidney IHC (IgG) pathological score, bilateral kidneys: 7.40 ± 0.56
  Skin HE pathological score: 3.60 ± 0.37
  Total kidney weight: 0.3704 ± 0.01 g
  Total kidney weight/body weight %: 1.0997 ± 0.05%
  IL-6 concentration in serum (ELISA): 63.17 ± 12.60 pg/mL
  Spleen weight: 0.3184 ± 0.03 g
  Spleen weight/body weight %: 0.9485 ± 0.09 %
  TNF-alpha concentration in serum (ELISA): 32.29 ± 4.62 pg/mL
  Total lymph node weight: 0.7319 ± 0.12 g
  Total lymph node weight/body weight %: 2.1603 ± 0.35 %
[1]; 40 mg/kg BID, week 0
  Concentration of serum anti-ds-DNA antibody: 3.32 ± 0.39 µg/mL
  Lymph node score: 0.0 ± 0.00
  Skin score (skin destruction): 0.0 ± 0.00
[1]; 40 mg/kg BID, week 4
  Concentration of serum anti-ds-DNA antibody: 346.06 ± 35.04 µg/mL
  Skin score (skin destruction): 0.0 ± 0.00
[1]; 40 mg/kg BID, week 6
  Lymph node score: 0.0 ± 0.00
[1]; 40 mg/kg BID, week 7
  Lymph node score: 0.3 ± 0.15
[1]; 40 mg/kg BID, week 8
  Concentration of serum anti-ds-DNA antibody: 885.04 ± 96.38 µg/mL
  Skin score (skin destruction): 0.0 ± 0.00
[1]; 40 mg/kg BID, week 9
  Lymph node score: 0.7 ± 0.26
[1]; 40 mg/kg BID, week 11
  Lymph node score: 0.9 ± 0.23
[1]; 40 mg/kg BID, week 12
  Concentration of serum anti-ds-DNA antibody: 1390.83 ± 266.11 µg/mL
  Lymph node score: 1.2 ± 0.25
  Skin score (skin destruction): 0.0 ± 0.00
[1]; 40 mg/kg BID, week 14
  Skin score (skin destruction): 0.0 ± 0.00
[1]; 40 mg/kg BID, week 16
  Concentration of serum anti-ds-DNA antibody: 1198.59 ± 86.64 µg/mL
  Skin score (skin destruction): 0.0 ± 0.00
[1]; 40 mg/kg BID, week 17
  Lymph node score: 1.5 ± 0.34
  Skin score (skin destruction): 0.0 ± 0.00
[1]; 60 mg/kg BID
  Area under the urine protein curve: 4138.70 ± 1048.57 wk*mg/L
  Kidney HE pathological score of both kidneys, Activity index: 3.90 ± 0.75
  Kidney HE pathological score of both kidneys, Chronicity index: 6.00 ± 0.75
  Kidney HE pathological score of both kidneys, Tubulointerstitial lesions: 8.50 ± 0.91
  Kidney IHC (IgG) pathological score, bilateral kidneys: 6.90 ± 0.28
  Skin HE pathological score: 2.60 ± 0.37
  Total kidney weight: 0.3639 ± 0.02 g
  Total kidney weight/body weight %: 1.1424 ± 0.07%
  IL-6 concentration in serum (ELISA): 35.99 ± 7.36 pg/mL
  Spleen weight: 0.2805 ± 0.03 g
  Spleen weight/body weight %: 0.8892 ± 0.10 %
  TNF-alpha concentration in serum (ELISA): 30.61 ± 4.72 pg/mL
  Total lymph node weight: 0.5680 ± 0.08 g
  Total lymph node weight/body weight %: 1.7879 ± 0.26 %
[1]; 60 mg/kg BID, week 0
  Concentration of serum anti-ds-DNA antibody: 3.33 ± 0.42 µg/mL
  Lymph node score: 0.0 ± 0.00
  Skin score (skin destruction): 0.0 ± 0.00
[1]; 60 mg/kg BID, week 4
  Concentration of serum anti-ds-DNA antibody: 249.26 ± 24.12 µg/mL
  Skin score (skin destruction): 0.0 ± 0.00
[1]; 60 mg/kg BID, week 6
  Lymph node score: 0.0 ± 0.00
[1]; 60 mg/kg BID, week 7
  Lymph node score: 0.1 ± 0.10
[1]; 60 mg/kg BID, week 8
  Concentration of serum anti-ds-DNA antibody: 806.75 ± 110.22 µg/mL
  Skin score (skin destruction): 0.0 ± 0.00
[1]; 60 mg/kg BID, week 9
  Lymph node score: 0.3 ± 0.15
[1]; 60 mg/kg BID, week 11
  Lymph node score: 0.4 ± 0.16
[1]; 60 mg/kg BID, week 12
  Concentration of serum anti-ds-DNA antibody: 1168.19 ± 113.75 µg/mL
  Lymph node score: 0.5 ± 0.22
  Skin score (skin destruction): 0.0 ± 0.00
[1]; 60 mg/kg BID, week 14
  Skin score (skin destruction): 0.0 ± 0.00
[1]; 60 mg/kg BID, week 16
  Concentration of serum anti-ds-DNA antibody: 1272.27 ± 50.19 µg/mL
  Skin score (skin destruction): 0.0 ± 0.00
[1]; 60 mg/kg BID, week 17
  Lymph node score: 1.0 ± 0.26
  Skin score (skin destruction): 0.0 ± 0.00
[1]; mouse, in vivo
  Mice died during the test: one
[2]; in vivo, rat effective dose 3 mg/kg/time BID
  AUC: 4.31 µg·h/mL
[2]; rat effective dose (reference)
  Safety window, dose method: 1 fold
[2]; rats
  Effective dose for rats: 3 mg/kg/time bid

From patent US20240165123A1, “USE OF A COMPOUND CONTAINING A TRICYCLIC HETEROARYL GROUP” (CSPC Zhongqi Pharmaceutical Technology (Shijiazhuang) Co., …, priority 2021, published 2024)
